Experimental data as given in ChEMBL document CHEMBL4007398, “Inhibitors of Influenza Virus Polymerase Acidic (PA) Endonuclease: Contemporary Developments and Perspectives” (J Med Chem, 2017).

Legend:
[1] = Inhibition of influenza A virus N-terminal PA endonuclease
[2] = Cytotoxicity against HEK293 cells assessed as reduction in cell viability by MTS assay; format: cell-based; conditions: human
[3] = Inhibition of recombinant influenza A virus A/X-31 N-terminal 6His tagged-PA endonuclease (1 to 217 residues) expressed in Escherichia coli BL21-CodonPlus cells after 2 hrs using single stranded circular DNA plasmid M13mp18 as substrate by ethidium bromide staining based agarose gel electrophoresis; design: species or system Influenza A virus (A/X-31(H3N2))
Influenza A virus [4] = experiment: Antiviral activity against influenza A virus (A/PR/8/34) infected in HEK293 cells after 24 hrs by firefly luciferase reporter gene based vRNP-reconstitution assay; format: functional, cell-based; conditions: A/Puerto Rico/8/1934(H1N1), HEK293, 24 h
[5] = Cytotoxicity against MDCK cells after 48 hrs by MTT assay; format: cell-based, Canis lupus familiaris; conditions: dog
[6] = Antiviral activity against influenza A virus (A/Chile/1/83) infected in MDCK cells after 2 to 3 days by crystal violet staining based plaque reduction assay; format: functional, cell-based, Influenza A virus (A/Chile/1/1983(H1N1))
Influenza B virus [7] = experiment: Antiviral activity against influenza B virus (B/Yamagata/16/88) infected in MDCK cells after 2 to 3 days by crystal violet staining based plaque reduction assay; format: functional, cell-based; conditions: B/Yamagata/16/1988, MDCK
[8] = Antiviral activity against influenza A virus (A/Sydney/5/97) infected in MDCK cells after 2 to 3 days by crystal violet staining based plaque reduction assay; format: functional, cell-based, Influenza A virus (A/Sydney/5/1997(H3N2))
[9] = molecular target: Polymerase acidic protein (Influenza A virus (A/Puerto Rico/8/1934(H1N1)), UniProt P03433); experiment: Inhibition of influenza A virus (A/PR/8/34) N-terminal PA endonuclease using 880 nucleotide ALMV cap1 primer RNA as substrate
[10] = Antiviral activity against influenza A virus (A/HK/415742/09(H1N1)) infected in MDCK cells by plaque reduction assay; format: functional, cell-based, Influenza A virus (A/Hong Kong/415742/2009(H1N1))
[11] = Cytotoxicity against MDCK cells by MTT assay; format: cell-based, Canis lupus familiaris; conditions: dog
[12] = Binding affinity to influenza A virus PA endonuclease by isothermal titration calorimetry
[13] = Inhibition of recombinant influenza A virus A/X-31 N-terminal PA endonuclease (1 to 217 residues) after 2 hrs using single stranded circular DNA plasmid M13mp18 as substrate by ethidium bromide staining based agarose gel electrophoresis; design: species or system Influenza A virus (A/X-31(H3N2))
Influenza A virus [14] = experiment: Antiviral activity against influenza A virus ((A/PR/8/34) infected in MDCK cells assessed as reduction in viral yield after 24 hrs by qRT-PCR assay; format: functional; conditions: A/Puerto Rico/8/1934(H1N1)
[15] = Cytotoxicity against MDCK cells assessed as reduction in cell viability after 24 hrs by MTS assay; format: cell-based, Canis lupus familiaris; conditions: dog
Influenza A virus [16] = experiment: Antiviral activity against influenza A virus infected in HEK293 cells after 24 hrs by firefly luciferase reporter gene based vRNP-reconstitution assay; format: functional, cell-based; conditions: HEK293, 24 h
[17] = Cytotoxicity against HEK293 cells assessed as reduction in cell viability after 24 hrs by MTS assay; format: cell-based; conditions: human
[18] = Cytotoxicity against MDCK cells assessed as reduction in cell viability after 48 hrs in serum free conditions by CellTiter-Glo luminescent assay; format: cell-based, Canis lupus familiaris; conditions: dog
[19] = Antiviral activity against influenza A virus H9N2 infected in MDCK cells assessed as reduction of virus-induced cytopathic effect after 48 hrs by CellTiter-Glo luminescent assay; format: functional, cell-based, H9N2 subtype
[20] = Antiviral activity against influenza A virus H7N9 infected in MDCK cells assessed as reduction of virus-induced cytopathic effect after 48 hrs by CellTiter-Glo luminescent assay; format: functional, cell-based, H7N9 subtype
Influenza A virus (H1N1) = experiment: Antiviral activity against influenza A virus H1N1-pdm09 infected in MDCK cells assessed as reduction of virus-induced cytopathic effect after 48 hrs by CellTiter-Glo luminescent assay; format: functional, cell-based
[21] = Cytotoxicity against MDCK cells assessed as reduction in cell viability after 48 hrs in presence of 5 % serum by CellTiter-Glo luminescent assay; format: cell-based, Canis lupus familiaris; conditions: dog
Influenza B virus [22] = experiment: Antiviral activity against influenza B virus infected in MDCK cells assessed as reduction of virus-induced cytopathic effect after 48 hrs by CellTiter-Glo luminescent assay; format: functional, cell-based
H5N1 subtype = experiment: Antiviral activity against influenza A virus H5N1 infected in MDCK cells assessed as reduction of virus-induced cytopathic effect after 48 hrs by CellTiter-Glo luminescent assay; format: functional, cell-based
Influenza A virus [23] = experiment: Antiviral activity against influenza A virus H1N1 infected in MDCK cells assessed as reduction of virus-induced cytopathic effect after 48 hrs by CellTiter-Glo luminescent assay; format: functional, cell-based
Influenza A virus H3N2 = experiment: Antiviral activity against influenza A virus H3N2 infected in MDCK cells assessed as reduction of virus-induced cytopathic effect after 48 hrs by CellTiter-Glo luminescent assay; format: functional, cell-based
Influenza A virus [24] = experiment: Antiviral activity against influenza A virus; format: functional
Influenza A virus [25] = experiment: Antiviral activity against influenza A virus (A/PR/8/34) infected in MDCK cells assessed as reduction in viral yield incubated for 30 mins prior to infection measured after 24 hrs by plaque reduction assay; format: functional, cell-based; conditions: A/Puerto Rico/8/1934(H1N1)
[26] = Cytotoxicity against MDCK cells assessed as reduction in cell viability after 48 hrs by WST-1 assay; format: cell-based, Canis lupus familiaris; conditions: dog
[27] = Antiviral activity against influenza A virus (A/WSN/33 (H1N1)) infected in MDCK cells after 48 hrs by crystal violet staining based plaque reduction assay; format: functional, cell-based, Influenza A virus (A/WSN/1933(H1N1))
[28] = Inhibition of recombinant influenza A virus A/X-31 N-terminal 6His tagged-PA endonuclease (1 to 217 residues) expressed in Escherichia coli BL21-CodonPlus cells after 1 hr using single stranded circular DNA plasmid M13mp18 as substrate by ethidium bromide staining based agarose gel electrophoresis; design: species or system Influenza A virus (A/X-31(H3N2))

O=c1[nH]cc(Br)cc1O
IC50 [1]: 16 µM

NC(=S)N/N=C/c1cccc(O)c1O
CC50 [2]: > 200 µM
IC50 [3]: 37 µM
EC50 (Influenza A virus [4]): 63 µM

O=C(O[C@@H]1Cc2c(O)cc(O)cc2O[C@@H]1c1ccc(O)c(O)c1)c1cc(O)c(O)c(O)c1 [EPICATECHIN GALLATE]
CC50 at 48 h [5]: 526 µM
EC50 [6]: 26.4 µM
EC50 (Influenza B virus [7]): 40.4 µM
EC50 [8]: 22.2 µM

CC(C)/C=C1\N=C(CC(C)C)C(=O)N(O)C1=O
IC50 [9]: 5.1 to 5.5 µM

CN(C)c1ccc(/C=C2\C/C(=N\N=C3\C(=O)Nc4ccccc43)NC2=O)cc1
EC50 [10]: 1.5 µM
CC50 [11]: > 300 µM
Kd [12]: 1.3 µM

O=C(N/N=C/c1cc(O)c(O)c(O)c1)c1cc(O)c(O)c(O)c1
IC50 [13]: 8.7 µM
EC90 (Influenza A virus [14]): 3.5 µM
CC50 at 24 h [15]: > 200 µM
EC50 (Influenza A virus [16]): 3.1 µM
CC50 at 24 h [17]: > 200 µM

C[C@@H](N1CN([C@H]2c3ccccc3CSc3ccccc32)n2ccc(=O)c(O)c2C1=O)C(F)(F)F
CC50 at 48 h [18]: 11.9 µM
EC50 [19]: 0.0122 µM
EC50 [20]: 0.0154 µM
EC50 (Influenza A virus (H1N1)): 0.007 µM
CC50 at 48 h [21]: 86.2 µM
EC50 (Influenza B virus [22]): 0.0128 µM
EC50 (H5N1 subtype): 0.0139 µM
EC50 (Influenza A virus [23]): 0.0083 µM
EC50 (Influenza A virus H3N2): 0.0085 µM

Cn1cnc(-c2nc(C(=O)O)c(O)c(=O)[nH]2)c1
EC50 (Influenza A virus [24]): > 50 µM

O=C(O)/C(O)=C/C(=O)c1cccn1Cc1ccc(F)cc1
IC50 [3]: 0.8 µM

CC(=O)Nc1cccc(-c2nc(C(=O)O)c(O)c(=O)[nH]2)c1
EC50 (Influenza A virus [24]): > 50 µM

O=C(O)/C(O)=C/C(=O)C1(Cc2ccc(Cl)cc2)CCCN(Cc2ccccc2)C1 (stereo unspecified)
EC50 (Influenza A virus [25]): 0.18 to 0.71 µM

OC(CN1CCCCC1)Cn1c2c(c3ccccc31)CCCC2 (stereo unspecified)
CC50 at 48 h [26]: > 200 µM
EC50 [27]: 36.5 µM

O=C(O[C@@H]1Cc2c(O)cc(O)cc2O[C@@H]1c1cc(O)c(O)c(O)c1)c1cc(O)c(O)c(O)c1 [EPIGALOCATECHIN GALLATE]
CC50 at 48 h [5]: 275 µM
EC50 [6]: 28.4 µM
EC50 (Influenza B virus [7]): 26.1 µM
EC50 [8]: 22.8 µM

O=C(O)/C(O)=C/C(=O)C1(Cc2ccc(Cl)cc2)CCCN(S(=O)(=O)Cc2ccccc2)C1 (stereo unspecified)
EC50 (Influenza A virus [25]): 0.18 to 0.71 µM

O=C(O)/C(O)=C/C(=O)C1(Cc2ccc(Cl)cc2)CCN(CC2CCCCC2)CC1
EC50 (Influenza A virus [25]): 0.18 to 0.71 µM

NC(=O)N/N=C/c1cccc(O)c1O
CC50 [2]: > 200 µM
IC50 [3]: 24 µM
EC50 (Influenza A virus [4]): 107 µM

O=C(O)/C(O)=C/C(=O)C1(Cc2ccc(Cl)cc2)CCN(Cc2ccc(Cl)cc2)CC1
EC50 (Influenza A virus [25]): 0.18 to 0.71 µM

O=C1Nc2ccccc2/C1=N\N=C1/C/C(=C2\C(=O)Nc3ccccc32)C(=O)N1
EC50 [10]: 0.8 µM
CC50 [11]: > 400 µM
Kd [12]: 1.1 µM

O=C(NCc1ccc(F)cc1)c1cccc(O)c1O
IC50 [28]: 33 µM
